Assay results from patent publication US8679442B2, “Fullerene compositions and methods for photochemical purification” (William Marsh Rice University, priority 2009, dated 2014).

Key:
[1] = Triplet-state decay kinetics by laser flash photolysis; type: physicochemical; settings: hexane solution, comparable experimental conditions
Description: Measurement of Triplet-State Decay Kinetics in Hexakis-Substituted C60 Fullerene Derivatives. Decay kinetics of the triplet states for the hexakis-substituted C60 derivatives were measured by laser flash photolysis using a 308 nm laser pulse (10-20 mJ with a pulse width of 10 ns). A xenon lamp was used as the monitoring source. […] The test solutions were purged with bubbling argon gas for 15 minutes and then sealed from the atmosphere. Instantaneous generation of the triplet state was induced by laser pulse irradiation with subsequent monitoring between 650 and 770 nm, depending on the specific functional groups present in each hexakis-substituted C60 fullerene derivative.

[2] = Photochemically-induced singlet oxygen production, furfuryl alcohol (FFA) degradation under BLB lamps; settings: 50 μM derivative, 0.5 mM FFA
Description: Photochemically-Induced Singlet Oxygen Production from Hexakis-Substituted C60 Fullerene Derivatives. Photochemical generation of singlet oxygen was performed using a magnetically stirred 60 mL cylindrical quartz reactor surrounded by six 4 W black light blue (BLB) lamps (emission wavelength region: 350-400 nm, Philips TL4W) at ambient temperature (22° C.). The incident light intensity was 3.79×10^−4 Einstein·min^−1L^−1. Reaction solutions containing 50 μM of hexakis-substituted C60 fullerene derivatives 1-4 and 0.5 mM furfuryl alcohol (FFA) as an indicator/reactant for singlet oxygen formed were buffered at pH=7 using 10 mM phosphate buffer. Thereafter, the solutions were exposed to the light source. As the photochemical reaction proceeded, 1 mL sample aliquots were periodically withdrawn from the reactor using a syringe, filtered through a 0.22 μm PTFE filter (Millipore), and injected into a 2 mL amber glass vial for further analysis. The residual FFA concentration was quantified using HPLC. […] Generation of singlet oxygen from commercially-available fullerol is presented for comparison purposes.
Table 1 summarizes the initial degradation rate of FFA in the presence of hexakis-substituted C60 fullerene derivatives 1-4 in comparison to commercially available fullerol and Rose Bengal. Initial FFA degradation rates of hexakis-substituted C60 fullerene derivatives 1-4 in the presence of L-histidine and t-butanol are also presented for comparison. […] As shown by the FFA degradation rate, the singlet oxygen production of the C60 fullerene derivatives was greatest for hexakis-substituted C60 fullerene derivative 4 and smallest for hexakis-substituted C60 fullerene derivative 1.

triplet state formation [1] | Initial FFA Degradation Rate, No Scavenger ([2]; pH 7, 10 mM phosphate buffer, BLB 350-400 nm, no scavenger) | Initial FFA Degradation Rate, L-Histidine Scavenger ([2]; pH 7, BLB 350-400 nm, excess L-histidine) | Initial FFA Degradation Rate, t-Butanol Scavenger ([2]; pH 7, BLB 350-400 nm, t-butanol) | Compound
not detected | – | – | – | c12c3c4c5c1c1c6c7c2c2c8c3c3c9c4c4c%10c5c5c1c1c6c6c%11c7c2c2c7c8c3c3c8c9c4c4c9c%10c5c5c1c1c6c6c%11c2c2c7c3c3c8c4c4c9c5c1c1c6c2c3c41 [C60, Buckminsterfullerene]
– | 16.34 ± 0.29 | 0.07 ± 0.04 | 16.70 ± 0.47 | O=C([O-])c1c(Cl)c(Cl)c(Cl)c(Cl)c1-c1c2cc(I)c(=O)c(I)c-2oc2c(I)c([O-])c(I)cc12.[Na+].[Na+] [Rose Bengal]
